Laboratory results taken from patent publication US9745551B2, “Mesenchymal-like stem cells derived from human embryonic stem cells, methods and uses thereof” (IMSTEM BIOTECHNOLOGY, INC., priority 2012, dated 2017).

Tested on: hES cells
Assay: Embryoid body (EB) and hemangioblast formation from hESC cultured with BIO
Type: cell-based, human
Procedure: Four hESC cell lines were used: H9 (derived from WiCell Research Institute) (Thomson et al. (1998)); CT2 (derived from University of Connecticut Stem Cell Core (Lin et al. (2010)); MA09 (an FDA approved, clinical-grade cell line derived at Advanced Cell Technology, Inc.) (Klimanskaya et al. (2006)); and ES03-Envy (Envy, a GFP-labeled line, derived at ES International) (Costa et al. (2005)). These cell lines were cultured on Matrigel (BD Biosciences, San Jose, Calif.) and cultured in TeSR1 medium, (Stem Cell Technologies, Vancouver, Canada), with or without adding of 0.05-0.2 μM of BIO (6-Bromoindirubin-3′-oxime (CAS 667463-62-9)).
hESC cells were then differentiated into EB cells and then enriched for HB as previously described (Lu et al. (2008); Lu et al. (2007)). 50-80% confluent hEs cell on the Matrigel plate were digested with Dispase (1 mg/ml for 5 to 10 minutes) and then washed with EB formation basal medium, HPGM (Lonza, Walksville, Md.), or STEMLINE I/II Hematopoietic Stell Cell Expansion Medium (Sigma, St. Louis, Mo.), or StemSpan H3000 (Stem Cell Technologies, Vancouver, Canada), or IMDM with 10% FBS, or DMEDM/F12 with 10% FBS. Cells were then cultured in EB formation medium supplemented with 50 ng/ml of VEGF (Peprotech) and 50 ng/ml of BMP4 (Stemgent) for 48 hours on ultra-low plate at a density of about 2-3 million cells/ml. After 48 hours, half the culture medium was replaced with fresh EB formation medium plus 25-50 ng/ml of bFGF.
Four days later, EB cells formed in the medium were harvested and dissociated into single cells with TrypLE (Invitrogen) at 37° C. for 2-3 minutes. Cells were washed and resuspended at 1-5 million cells/ml in EB formation basal medium. The single cell suspension were then mixed at 1:10 with Hemangioblast Growth Medium (Stem Cell Technologies, Vancouver, Canada). […]

O=C1Nc2cc(Br)ccc2/C1=C1/Nc2ccccc2/C1=N\O [BIO, (2′Z,3′E)-6-Bromoindirubin-3′-oxime]
size and yield of the EB culture (BIO in the mTesr1 medium): increase
total EB number increase (BIO in the mTesr1 medium): 3 folds
percentage of CD45 cell differentiation (indicator of hemangioblast differentiation efficiency) (BIO treatment compared to traditional mTesr1 medium): tripled
